Key:
[1] = molecular target: T1, mutant LRRK2 (G2019S) (Homo sapiens, UniProt Q5S007, G2019S); experiment: Inhibitory activity against LRRK2: competition binding to ligand-affinity beads, DNA-tagged kinase quantitated by qPCR; conditions: 100 nM compound; % of ctrl; read-out: Remaining kinase activity(%) at 100 nM LRRK2(G2019Smutant)
T1 construct: DNA tag for qPCR detection (not a peptide; the protein part that carries it is not described); made in house; host or cells: HEK 293 cells (the same paragraph also describes T7 phage grown in E. coli BL21)
T1 sequence (Q5S007 970-2527 G2019S): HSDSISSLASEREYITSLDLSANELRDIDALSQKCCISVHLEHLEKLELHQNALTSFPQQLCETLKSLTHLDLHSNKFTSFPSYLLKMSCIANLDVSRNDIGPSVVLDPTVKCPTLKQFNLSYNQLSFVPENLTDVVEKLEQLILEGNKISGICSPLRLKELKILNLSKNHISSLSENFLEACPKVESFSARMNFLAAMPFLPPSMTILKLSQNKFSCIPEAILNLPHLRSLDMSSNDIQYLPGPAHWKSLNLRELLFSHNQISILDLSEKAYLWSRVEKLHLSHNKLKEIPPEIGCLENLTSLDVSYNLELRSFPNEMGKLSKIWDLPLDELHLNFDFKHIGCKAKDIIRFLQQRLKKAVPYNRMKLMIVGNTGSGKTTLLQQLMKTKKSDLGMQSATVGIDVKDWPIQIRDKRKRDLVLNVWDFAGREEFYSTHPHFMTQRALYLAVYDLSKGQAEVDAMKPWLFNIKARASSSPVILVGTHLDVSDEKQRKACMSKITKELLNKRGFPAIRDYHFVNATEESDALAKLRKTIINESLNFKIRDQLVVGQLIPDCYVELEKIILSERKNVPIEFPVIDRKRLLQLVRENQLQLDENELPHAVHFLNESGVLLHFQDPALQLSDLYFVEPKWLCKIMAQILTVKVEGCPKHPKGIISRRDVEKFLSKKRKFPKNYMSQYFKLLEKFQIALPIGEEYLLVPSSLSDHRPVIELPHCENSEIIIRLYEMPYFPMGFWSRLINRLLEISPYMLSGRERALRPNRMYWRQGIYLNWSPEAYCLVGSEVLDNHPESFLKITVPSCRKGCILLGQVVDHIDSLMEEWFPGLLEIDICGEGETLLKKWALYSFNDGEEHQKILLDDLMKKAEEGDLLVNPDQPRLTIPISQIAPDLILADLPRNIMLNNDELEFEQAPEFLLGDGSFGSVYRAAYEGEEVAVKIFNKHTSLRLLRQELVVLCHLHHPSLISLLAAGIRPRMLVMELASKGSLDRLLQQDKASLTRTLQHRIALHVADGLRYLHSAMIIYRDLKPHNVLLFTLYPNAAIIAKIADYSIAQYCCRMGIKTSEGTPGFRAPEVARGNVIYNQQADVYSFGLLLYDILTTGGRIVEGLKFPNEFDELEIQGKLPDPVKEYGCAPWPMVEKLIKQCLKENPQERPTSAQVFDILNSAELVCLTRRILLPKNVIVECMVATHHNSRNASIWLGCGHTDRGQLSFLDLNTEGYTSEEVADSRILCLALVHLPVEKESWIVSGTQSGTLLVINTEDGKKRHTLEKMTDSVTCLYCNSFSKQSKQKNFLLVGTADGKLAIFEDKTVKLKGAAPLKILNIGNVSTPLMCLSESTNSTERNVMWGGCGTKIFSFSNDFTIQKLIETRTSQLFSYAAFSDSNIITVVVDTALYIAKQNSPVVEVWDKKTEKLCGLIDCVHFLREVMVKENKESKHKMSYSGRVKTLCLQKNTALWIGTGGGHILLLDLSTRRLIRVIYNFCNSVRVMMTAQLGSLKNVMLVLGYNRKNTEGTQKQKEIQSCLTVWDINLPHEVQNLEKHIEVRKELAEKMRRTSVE
Summary of the method: (§1)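 Human LRRK2 H970–E2527, wild type or G2019S, was expressed as DNA-tagged kinase (T7 phage in E. coli or HEK293) and competed for 1 h against a biotinylated ligand on streptavidin beads. Bound kinase was eluted with 0.5 µM free ligand and quantified by qPCR. Values are % of control at 100 nM (both forms) and at 10 and 50 nM (wild type).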

[2] = molecular target: T2, wild-type LRRK2 (Homo sapiens, UniProt Q5S007); experiment: as above; conditions: % of ctrl; for remaining binding at 0.1 µM: 100 nM compound, read-out: Remaining kinase activity(%) at 100 nM LRRK2(WT)
T2 construct: DNA tag for qPCR detection (not a peptide; the protein part that carries it is not described); made in house; host or cells: HEK 293 cells (the same paragraph also describes T7 phage grown in E. coli BL21)
T2 sequence (Q5S007 970-2527): as the sequence (Q5S007 970-2527 G2019S) above, with S1050G counted along it
Summary of the method: as §1

[3] = Blood-brain barrier (BBB) penetration, LC-MS/MS of plasma and brain tissue after oral administration; assay type: in vivo; conditions: oral 10 mg/kg, three hours after administration
Method: Test substances were each orally administered at a dose of 10 mg/kg. Three hours later, the animals were sacrificed and blood samples were immediately taken from the heart and centrifuged to obtain plasma samples. In order to remove the blood remaining in the body, 20 ml of saline containing 10 U/ml heparin were perfused through the heart, after which the brain was excised. The brain was homogenized together with three volumes of a PBS buffer. For quantitative analysis in the prepared plasma and brain tissue, advantage was taken of LC-MS/MS (Agilent, Santa Clara, Calif., USA). Separation in LC was conducted with a mobile phase consisting of 80% of acetonitrile and 20% of water containing 0.1% formic acid. For each substance, the eluting buffer was run for a total of 3 minutes at a flow rate of 0.3 ml/min. Each substance was quantitated using a multiple reaction monitoring method (for comparative compounds 4 and 5, the oral Parkinson's disease drugs DNL-151 and DNL-201 were used as LRRK2 protein inhibitors, respectively).

Row | remaining binding at 0.1 µM [1] [%] | remaining binding at 0.01 µM ([2]; 10 nM compound, read-out: LRRK2(WT) Remaining kinase activity(%) at 10 nM) [%] | remaining binding at 0.05 µM ([2]; 50 nM compound, read-out: LRRK2(WT) Remaining kinase activity(%) at 50 nM) [%] | remaining binding at 0.1 µM [2] [%] | effective concentration in the brain tissue, fold higher compared to comparative compound-4 (DNL-151) [3] [fold] | effective concentration in the brain tissue, fold higher compared to comparative compound-5 (DNL-201) [3] [fold] | SMILES
1 | < 10 | < 50 | < 30 | < 10 | 1.64 | 2.77 | COc1cc(C(=O)N2CCOCC2)ccc1Nc1ncc(Cl)c(-c2cnn(C(C)C)c2)n1 [Compound 37, (4-((5-chloro-4-(1-isopropyl-1H-pyrazol-4-yl)pyrimidin-2-yl)amino)-3-methoxyphenyl)(morpholino)methanone]
2 | < 10 |  |  | < 10 |  |  | COc1cc(C(=O)N2CCOCC2)ccc1Nc1ncc(Cl)c(-c2cnn(C(C)(C)C)c2)n1 [Compound 59, (4-((4-(1-(tert-butyl)-1H-pyrazol-4-yl)-5-chloropyrimidin-2-yl)amino)-3-methoxyphenyl)(morpholino)methanone]
